From patent publication US20240294478A1, “ANTI-CANCER COMPOUNDS AND METHODS OF USE” (YALE UNIVERSITY, priority 2021, published 2024)
Like-named read-outs stand apart in the source and are kept apart here.

Assays:
LN229 MGMT+/MMR− cells = test: Short-term cell viability assay, LN229 MGMT+/MMR- (shRNA targeting MSH2); format: cell-based; settings: Homo sapiens
Method: LN229 MGMT- and MGMT+ cell lines were a gift from B. Kaina (Johannes Gutenberg University Mainz, Mainz, Germany) and grown in Gibco® Duilbecco's Modified Eagle Medium with 10% fetal bovine serum (DMEM). For each compound tested, the relationship between MGMT status and MMR status and compound activity, in terms of IC50 values ([…]), was determined by the following method. On day 1, LN229 isogenic cells of varying MGMT and MMR status were seeded in 96 well format at a density of 2000 cells/well in 100 μL of DMEM media and allowed to adhere overnight. On day 2, a drug master plate was made with 100×the desired maximal concentration of test compound and serially diluted by 2 until 100×the minimal desired concentration, with one DMSO control. Then daughter plates were created with varied concentrations from 3-times the minimal concentration to 3-times the maximal desired concentration. Afterwards, 50 μL of daughter drug plate was added to 100 μL of the seeded cells for a final concentration of 1×in triplicate. Cells were allowed to grow for 6 days. On day 7, the cells were fixed, and stained with Hoechst nuclear dye and imaged to determine growth inhibition.
For each compound tested, the relationship between MGMT status and MMR status and compound activity, in terms of IC50 values (in μM), was determined. In addition, for each compound, the therapeutic index (TI) was calculated, according to the equation MGMT TI=IC50 (MGMT+/MMR+) divided by IC50 (MGMT−/MMR+). The T1 indicates the efficacy of a compound in treating the targeted MGMT-cancer cells as compared to potential for the same compound to damage, or have adverse effects against, normal cells which are MGMT+cells, The higher the value of the TI, the safer the compound is. […] MMR RI (resistance index)=IC50 (MGMT−/MMR−) divided by IC50 (MGMT−/MMR+). The higher the value of the RI, the less likely that resistance to the compound will develop.
(§1) Short-term Cell Viability Assay. Cells were seeded in 96-well plates at 1000 or 2000 cells/well and allowed to adhere at 23° C. for 60 min and then incubated overnight at 37° C. Cells were treated with indicated concentrations of compounds in triplicate for 4-6 days prior to fixation with 3.7% paraformaldehyde and nuclear staining with 1 μg/mL Hoechst 33342 dye. Cells were imaged on a Cytation 3 imaging reader (BioTek) and quantified using CellProfiler software. For in vitro short-term growth delay experiments, IC50 values were determined from the nonlinear regression equation, [inhibitor] vs normalized response with variable slope.

LN229 MGMT+ shMSH6 cells = test: Short-term viability assay, LN229 MGMT+ shMSH6; format: cell-based; settings: Homo sapiens, LN-229, Table III, read-out: IC50 against LN229 cell lines, MGMT MMR−
Method: (§2) The activity of KL-50 in MGMT-LN229 cells engineered to lack expression of other key MMR proteins including MSH6, MLH1, PMS2, and MSH3 was also confirmed. Western blotting was performed in LN229 MGMT+/−cells with stable expression of shRNA targeting MSH6, MLH1, PMS2, or MSH3 to confirm depletion of the shRNA targets. In shMSH6 cells, there was reduced expression of MSH2, and in shMLH1 cells, there was loss of PMS2, due to destabilization in the setting of loss of their heterodimeric partners. GAPDH serves as loading control. […] Short-term viability assay curves for KL-50 in LN229 MGMT+/−, MMR+/shMSH6 cells. […] Short-term viability assay curves for KL-50 in LN229 MGMT+/−, MMR+/shMLH1 cells. […] Short-term viability assay curves for KL-50 in LN229 MGMT+/−, MMR+/shPMS2 cells. […] Short-term viability assay curves for KL-50 in LN229 MGMT+/−, MMR+/shMSH3 cells.
(§3) MMR Protein shRNA Knockdown. pGIPZ lentiviral shRNA vectors targeting MSH2, MSH6, MLH1, PMS2, and MSH3 were purchased from Horizon Discovery (Table IV). […]
(§4) Short-term Cell Viability Assay. […] Cells were imaged on a Cytation 3 imaging reader (BioTek) and quantified using CellProfiler software. For in vitro short-term growth delay experiments, IC50 values were determined from the nonlinear regression equation, [inhibitor] vs normalized response with variable slope.

LN229 MGMT+ shPMS2 cells = test: Short-term viability assay, LN229 MGMT+ shPMS2; format: cell-based; settings: Homo sapiens, LN-229, Table III, read-out: IC50 against LN229 cell lines, MGMT MMR−
Method: as §2, §3, §4

MGMT−/MMR+ cells = test: IR alkaline comet assay, LN229 MGMT-/MMR+; format: cell-based, human; settings: for IR-induced comet tail (ICL formation): 200 μM; for comet tailing in the absence of IR: TMZ 200 μM, KL-50 200 μM, MMC 0.1 or 50 μM
Method: The IR alkaline comet assay, adapted for ICL detection was performed to determine if ICLs were formed in MGMT-cells treated with KL-50. In this assay, cells were sequentially exposed to genotoxins and ionizing radiation, and then analyzed by single cell alkaline gel electrophoresis. Attenuation of the IR-induced comet tail is indicative of ICL formation.
IR Alkaline Comet Assay. This assay was performed utilizing the CometAssay™ Kit (Trevigen) according to the alkaline assay protocol, with the addition of slide irradiation post-lysis. Cells were trypsinized, washed with 1×PBS, added to melted Comet LMAgarose (Trevigen), and spread on Trevigen CometSlides at a density of 1000 cells per sample in 50 μL. Lysis solution (Trevigen) with 10% DMSO was added overnight at 4° C. […] Slides were then placed in alkaline buffer (200 mM NaOH, 1 mM EDTA) for 45 min, followed by electrophoresis in 850 mL alkaline buffer for 45 min at 4° C. Slides were washed and stained with SYBR gold (Invitrogen) per Trevigen assay protocol. Slides were imaged on a Cytation 3 imaging reader (BioTek), and comets were analyzed using CometScore 2.0 software (TriTek).

LN229 MGMT− shMSH3 cells = test: Short-term viability assay, LN229 MGMT- shMSH3; format: cell-based, human; settings: for IC50: Homo sapiens, LN-229, Table III, read-out: IC50 against LN229 cell lines, MGMT− MMR−; for MGMT− RI: Table III
Method: as §2
MMR Protein shRNA Knockdown. pGIPZ lentiviral shRNA vectors targeting MSH2, MSH6, MLH1, PMS2, and MSH3 were purchased from Horizon Discovery (Table IV). Lentiviral particles were produced in HEK293T cells via co-transfection with lentiviral shRNA plasmid, pCMV-VSV-G envelope plasmid (Addgene, #8454) and psPAX2 packaging plasmid (Addgene, #12260), using Lipofectamine 3000 Reagent (Invitrogen, L3000001) per manufacturer's protocol. Viral particles were harvested 48 h post-transfection and used to transduce LN229 MGMT+/−cells in the presence of 8 μg/mL polybrene. Selection of pooled cells with lentiviral expression was established with 1 μg/mL puromycin 48 h post-transduction for 3 to 4 days. Single cell cloning was performed by limiting dilution and protein knockdown was confirmed by western blotting.
as §1

[1] = LN-229, Table II, read-out: IC50 against LN229 cell lines, MGMT MMR−

Row | Compound | IC50 (LN229 MGMT+/MMR− cells; [1]) [µM] | IC50 (LN229 MGMT+ shMSH6 cells) [µM] | IC50 (LN229 MGMT+ shPMS2 cells) [µM] | IR-induced comet tail (ICL formation) (MGMT−/MMR+ cells) | comet tailing in the absence of IR (MGMT−/MMR+ cells) | IC50 (LN229 MGMT− shMSH3 cells) [µM] | MGMT− RI (LN229 MGMT− shMSH3 cells) | IC50 (LN229 MGMT+/MMR− cells; LN-229, 144 h, Table 1, 6 days growth, read-out: IC50 against LN229 cell lines, MGMT+ MMR−) [µM]
1 | NC(=O)c1ncn2c(=O)n(CCF)nnc12 [KL-50] | 504 ± 55 | 362 ± 41 | 215 ± 16 | reduced the % DNA in the tail to levels similar to those seen for 0.1 μM MMC | induced tailing | 7.9 ± 0.3 | 0.6 | –
2 | Cn1nnc2c(C(N)=O)ncn2c1=O [TMZ, 4-methyl-5-oxo-2,3,4,6,8-pentazabicyclo[4.3.0]nona-2,7,9-triene-9-carboxamide, reference compound] | 1000 ± 107 | 929 ± 201 | 700 ± 58 | did not reduce DNA migration following IR | induced tailing | 3.1 ± 0.6 | 0.6 | > 100
